Measured values from US20220264883A1, “IMIDAZOTHIAZOLE COMPOUNDS AND METHODS FOR TREATING PLANT NEMATODE INFECTIONS” (The Governing Council of the University of Toronto, priority 2019, published 2022).
Several values for one entry are separate records, joined by “and”; a condition that tells them apart may be missing. Equal values may be shown once.

Columns and labels:
M. chitwoodi = test: Root-knot nematode M. chitwoodi mobility (Table 3); type: in vivo, Meloidogyne chitwoodi; conditions: 45 μM, 2 days of chronic exposure
Protocol: (§1) M. incognita (Kofoid & White) Chitwood Race 1 (originally isolated in Maryland) was used for all experiments, and was maintained on pepper (Capsicum annuum L.) cv. PA-136 in a greenhouse as previously described^64. Infective J2 juveniles were collected as described in ref.65. The microwell dose-response experiments were carried out similarly to previously described protocols^64, 66. In brief, 100 J2s, in 10 μL of deionized water, were added to the wells of 96-well polystyrene plates, after which 190 μL of deionized water containing dissolved chemical, or DMSO alone, was added to each well. The chemicals were tested at 45 μM, and the final concentration of DMSO in each well was 0.5% (v/v). The wells were covered with a plastic adhesive strip, and the lids of the plates were sealed with parafilm. The plates were incubated at 25° C. The mobile fraction of worms was quantified by counting the number of mobile and immobile worms after 2 days of incubation, and then dividing the number of mobile worms by the total number of worms in the well. Three technical replicates were performed for each treatment, and an average value for the mobile fraction of worms was calculated across the three replicates. The percent effectiveness at inhibiting nematode movement was calculated by dividing the average value for the chemical treatment by the average value for the DMSO control, then subtracting this value from 1, and then multiplying by 100.
(§2) M. chitwoodi race 1 (the strain commonly found in the pacific northwest of the United States) was used for all experiments, and was maintained on tomato plants (Solanum lycopersicum ‘Rutgers’) as previously described^73. The M. chitwoodi in vitro assays were performed identically to the M. incognita in vitro assays (see above).
(§3) The ability of exemplary compounds of the application to kill C. elegans at 100 μM (except for compound If which was tested at 50 μM) and to affect the mobility of M. chitwoodi at 45 μM was tested as described above for M. incognita infective juveniles. Percent mobility was measured after 2 days of chronic exposure to test compounds (Table 3).

HepG2 cells = test: HepG2 cell proliferation assay; type: cell-based, human; conditions: for IC50: Alamar Blue
Protocol: HepG2 cells, which are liver-derived, were counted using a haemocytometer, diluted, and seeded in […] to a final density of 5×10^4 cells/mL in 100 uL of RPMI-1640 medium supplemented with 10% heat inactivated fetal bovine serum (Gibco) and 1.2×Antibiotic-Antimycotic (Gibco). Cells were incubated at 37° C. with 5% CO2 for 24 hours. Subsequently, a 2-fold dilution series of test compound was added to cells at a final volume of 200 uL and incubated at 37° C. with 5% CO2 for 72 hours. After 72 hours, Alamar Blue (Invitrogen) was added to the Hep G2 cells at a final concentration of 0.5× and plates were incubated at 37° C. for 4 hours. Fluorescence was measured at Ex560 nm/Em590 nm and corrected for background from the medium. All assays were performed in technical triplicates and in at least two biological replicates. The IC50 value was defined as the concentration that inhibits cell proliferation by 50% of the untreated control cells.

C. elegans [1] = test: C. elegans minimum lethal concentration dose-response; type: in vivo, Caenorhabditis elegans; conditions: for minimal effective concentration: Caenorhabditis elegans, C. elegans viability
Protocol: (§4) Forty microliters of an HB101 bacterial suspension in liquid NGM (see above) was added to each well of a 96-well flat-bottom culture plate, after which approximately 25 synchronized L1 worms, in 10 μl of M9 buffer (see ref. 59 for the recipe), were added to each well. The synchronized L1 worms were obtained from an embryo preparation performed the previous day (see ref. 59 for the protocol). For the L1 assays, 0.5 μl of chemical solution (or DMSO alone) was immediately added to the wells using a multichannel pipette, the final DMSO concentration is 1% (v/v). The worms were incubated for 3 days at 20° C. and the number of viable animals was counted. […] Although the counts were performed after 3 days of incubation in the chemical, it was noted that the L1s were dead within 24 hours of the addition of the chemicals. For the L2/L3 assays, the worms were incubated in the absence of chemical for 1 day at 20° C. until they reached the L2/L3 stage, at which point chemical was added as described above. The worms were then allowed to incubate for 2 days at 20° C. and the number of viable animals was counted as described for the L1 assay. For the L4 assays, the worms were incubated for 2 days at 20° C. before the addition of chemicals. The L4-stage worms were then incubated in chemical for an additional day before quantifying the number of viable animals. The adult assays were performed the same way as the L4 assays, however HT115 E. coli carrying the empty dsRNA expressing vector L4440 was used in place of HB101 and the worms were cultured at 25° C. as opposed to 20° C. for the entirety of the experiment. The HT115 suspension was made by concentrating a bacterial culture, with an OD600 of ˜ 0.8, five-fold with liquid NGM containing 1 mM IPTG and 100 μg/ml carbenicillin. The HT115 cells were induced with 1 mM IPTG for one hour before concentrating with NGM.
Compounds Ia to Im, dose-response assays were performed with C. elegans. 8 of the compounds killed C. elegans with minimum lethal concentrations less than or equal to 100 μM (Table 6). Compounds Ia, Ic, and Ij were the most potently lethal nematicides in this assay, having minimum lethal concentrations of 6.25 μM and below. The positive control nematicide tioxazafen killed nematodes at 3.13 μM and above.

M. chitwoodi J2 larvae = test: Meloidogyne chitwoodi in vitro assays (J2 movement); type: in vivo; conditions: 45 μM, 2 days, relative to DMSO control
Protocol: as §1, §2

tomato plants = test: Root mass of tomato plants in the infectivity assays; type: in vivo, Solanum lycopersicum; conditions: 45 μM
Protocol: (§5) An M. incognita population originally collected from grape (Vitis vinifera) in Parlier, Calif., was used for all experiments, and they were maintained on tomato plants (Solanum lycopersicum ‘Rutgers’) as previously described^73. Infective J2 juveniles were collected as described in^73. For the infectivity assays, 90 grams of soil (1:1 sand:loam mix) was added to each cell of several 6-cell plastic garden packs. The soil was drenched with 18 mL of deionized water containing dissolved chemical or DMSO alone. 2,500 infective J2 juveniles were then added to the soil in 2 mL of deionized water, for a total water volume of 20 mL. The final concentration of the chemicals in water was 45 μM. The DMSO concentration varied from 0.1% to 0.8% (v/v) depending on the stock concentration of the chemical. The highest DMSO concentration was used as the DMSO control. The J2s were incubated in the soil and chemical for 24 hours, after which two- to three-week old tomato seedlings were transplanted into the soil (one plant per cell). Two replicates were performed for each chemical treatment, and four replicates were done for the DMSO controls. The whole experiment was replicated twice, in two different batches on two different days, for a total of four replicates for each chemical treatment, and eight replicates for the DMSO controls. Inoculated plants were grown for 8 weeks in a greenhouse, as described^73, under long-day conditions (16-h photoperiod) with 26/18° C. day/night temperatures. After 8 weeks, the plants were destructively harvested. The tops were removed and discarded, and roots were gently washed with water to remove adhering soil. Eggs were extracted by placing rinsed roots in 0.6% sodium hypochlorite and agitating at 300 rpm for 3 min. Roots were then rinsed over nested 250- and 25.4-μm sieves, with eggs collected from the latter and suspended in water. Roots were dried in a 65° C. oven for at least 24 hours, after which dry roots were weighed. The number of eggs from each plant root was counted on a dissection microscope using a haemocytometer, and the number of eggs per milligram of root was calculated by dividing the total egg number by the mass of the dried root material. An average was taken across the replicates performed on the same day, and then normalized to the DMSO control average. To calculate percent effectiveness at inhibiting reproduction, the normalized values were subtracted from 1, and then multiplied by 100. An average percent effectiveness value was then calculated across the two different batches carried out on different days.

M. incognita J2 larvae = test: Meloidogyne incognita in vitro assays (J2 movement); type: in vivo; conditions: 45 μM, 2 days, relative to DMSO control
Protocol: as §1

C. elegans [2] = test: C. elegans viability at a single concentration (Table 3); type: in vivo; conditions: Caenorhabditis elegans; 100 μM
Protocol: as §4, §3

M. incognita = test: Meloidogyne incognita infectivity assays (tomato roots in soil); type: in vivo; conditions: 45 μM in soil, 8 weeks, eggs per mg root relative to DMSO control
Protocol: as §5

Arabidopsis thaliana = Arabidopsis thaliana greening experiments; type: in vivo; conditions: 5, 15 and 45 micromolar, greening after 4 days
Protocol: Greening experiments were performed with Arabidopsis thaliana seeds of wild type Col-0; seeds were surface sterilized in bleach and plated onto 0.5×MS, 0.5% sucrose agar medium supplemented with compounds of interest at 5, 15 and 45 μM concentrations. After 4 d of stratification at 4° C., plates were transferred to a growth chamber (16 h/8 h, 150 μE/m^2) and greening recorded after 4 days. Pictures were recorded by camera (SONY a7s) with FE1.8/55 lens (FE 55 mm F1.8 ZA; SEL55F18Z). Experiments were performed in triplicate for each treatment.

[3] = tested on: M. incognita infective juveniles; test: Meloidogyne incognita dose-response experiments (infective J2 juveniles, FIG. 2); type: in vivo; conditions: 5, 15, 45 micromolar; third day after water rinse
Protocol: M. incognita (Kofoid & White) Chitwood Race 1 (originally isolated in Maryland) was used for all experiments, and were maintained on pepper (Capsicum annuum L.) cv. PA-136 in a greenhouse as previously described^64. Infective J2 juveniles were collected as described in ref. 65. The microwell dose-response experiments were carried out similarly to previously described protocols^64, 66. In brief, 100 J2 s, in 10 μL of deionized water, were added to the wells of 96-well polystyrene plates, after which 190 μL of deionized water containing dissolved chemical, or DMSO alone, was added to each well. The final concentration of DMSO in each well was 0.5% (v/v), except for the water only control which contained no DMSO and no added chemicals. The final concentrations of the chemicals for each dose-response experiment were 5, 15, and 45 μM. The wells were covered with a plastic adhesive strip, and the lids of the plates were sealed with parafilm. The plates were incubated at 25° C. The fraction of active worms was quantified by counting the number of mobile and immobile worms after 1 and 2 days of incubation, and then dividing the number of mobile worms by the total number of worms in the well. After 2 days of incubation, the chemicals were removed and replaced with deionized water (i.e. the water rinse) and the fraction of active worms was quantified 1 day later. A failure of the worms to recover after rinsing with water is consistent with them having been killed by the chemical treatment. Four technical replicates were performed for each treatment.

Question: Which results are given for `Cc1cn2cc(-c3ccc(Cl)cc3)nc2s1` [Compound Ig]?
Answer: RKN mobility (M. chitwoodi): 82.4%; HepG2 IC50 (HepG2 cells; 72 hours, approximate ppm equivalent): > 25 ppm; IC50 (HepG2 cells; Homo sapiens, HepG2, 72 hours): > 100 µM; minimal effective concentration (C. elegans [1]): > 24.9 µg/mL; % effectiveness at reducing M. chitwoodi movement (M. chitwoodi J2 larvae): 5.7%; Normalized root mass (relative to DMSO control) (tomato plants): 1.4; % effectiveness at reducing M. incognita movement (M. incognita J2 larvae): 0.0%; viability at 100 µM (C. elegans [2]): 100%; % effectiveness at inhibiting reproduction of M. incognita (M. incognita): 44.2%

Question: With `Cc1csc2nc(-c3ccc(F)cc3)cn12` [Compound Ik, 6-(4-fluorophenyl)-3-methylimidazo[2,1-b]thiazole] as the compound, how does the minimal effective concentration (C. elegans [1]) read?
Answer: 50 µM and 11.6 µg/mL

Question: And the “Normalized root mass (relative to DMSO control)” value (tomato plants)?
Answer: 1.0

Question: And the “% effectiveness at inhibiting reproduction of M. incognita” value (M. incognita)?
Answer: 0.6%

Question: Which results are given for `Cc1csc2nc(-c3ccc(Br)cc3)cn12` [Compound Il, 6-(4-bromophenyl)-3-methylimidazo[2,1-b]thiazole]?
Answer: minimal effective concentration (C. elegans [1]): 25 µM and 7.3 µg/mL; Normalized root mass (relative to DMSO control) (tomato plants): 1.4; % effectiveness at inhibiting reproduction of M. incognita (M. incognita): 8.1%

Question: With `Cc1cn2cc(-c3ccc(Br)cc3)nc2s1` [Compound Im, 6-(4-bromophenyl)-2-methylimidazo[2,1-b]thiazole] as the compound, how does the minimal effective concentration (C. elegans [1]) read?
Answer: > 100 µM and > 29.3 µg/mL

Question: What about the “Normalized root mass (relative to DMSO control)” value (tomato plants) of the same compound?
Answer: 1.1

Question: What about the “% effectiveness at inhibiting reproduction of M. incognita” value (M. incognita) of the same compound?
Answer: 1.2%

Question: How did the RKN mobility (M. chitwoodi) turn out when `Cc1cn2cc(-c3ccc(I)cc3)nc2s1` [Ih] was run?
Answer: 82.5%

Question: What about the minimal effective concentration (C. elegans [1]) of the same compound?
Answer: > 100 µM and > 34 µg/mL

Question: What about the “% effectiveness at reducing M. chitwoodi movement” value (M. chitwoodi J2 larvae) of the same compound?
Answer: 5.6%

Question: And the “Normalized root mass (relative to DMSO control)” value (tomato plants)?
Answer: 1.3

Question: And the “% effectiveness at reducing M. incognita movement” value (M. incognita J2 larvae)?
Answer: 0.0%

Question: And the viability at 100 µM (C. elegans [2])?
Answer: 95.4%

Question: What about the “% effectiveness at inhibiting reproduction of M. incognita” value (M. incognita) of the same compound?
Answer: 25.7%

Question: What does the source list for `Cc1cn2cc(-c3ccc(F)cc3)nc2s1` [Ii]?
Answer: RKN mobility (M. chitwoodi): 28.9%; minimal effective concentration (C. elegans [1]): > 100 µM and > 23.2 µg/mL; % effectiveness at reducing M. incognita movement (M. incognita J2 larvae): 0.0%; viability at 100 µM (C. elegans [2]): 100%

Question: For `O=C(NCCc1ncc(C(F)(F)F)cc1Cl)c1ccccc1C(F)(F)F` [fluopyram, reference compound], which “effect on health and greening of Arabidopsis thaliana plants (phytotoxicity)” value (Arabidopsis thaliana) is on record?
Answer: phytotoxic at 15 and 45 micromolar

Question: And the “nematicidal activity on M. incognita infective juveniles” value [3]?
Answer: most potent compound tested

Question: How did the IC50 (HepG2 cells; 72 hours) turn out when `c1ccc(-c2noc(-c3cccs3)n2)cc1` [tioxazafen, reference compound] was run?
Answer: > 100 µM

Question: What about the “times more potent at killing C. elegans than compound Ig” value (C. elegans [1]; ratio of minimum lethal concentrations) of the same compound?
Answer: more than 32 times

Question: And the “% effectiveness at reducing M. chitwoodi movement” value (M. chitwoodi J2 larvae)?
Answer: 40.0%

Question: What about the “Normalized root mass (relative to DMSO control)” value (tomato plants) of the same compound?
Answer: 1.1

Question: And the “% effectiveness at reducing M. incognita movement” value (M. incognita J2 larvae)?
Answer: 55.5%

Question: What about the “% effectiveness at inhibiting reproduction of M. incognita” value (M. incognita) of the same compound?
Answer: 43.7%

Question: What about the “effect on health and greening of Arabidopsis thaliana plants (phytotoxicity)” value (Arabidopsis thaliana) of the same compound?
Answer: phytotoxic at 15 and 45 micromolar
